Test results: ChEMBL document CHEMBL6115026, “Synthesis and Biological Evaluation of Peripheral 5HT2B Antagonists for Liver Fibrosis” (J Med Chem, 2025)
pIC50, pKi: −log10 of the molar value. Activity calls are given as the source filed them. The calls are words filed in the database; no cut-off is given here.

Tests used:
[1] = target: T1, 5-hydroxytryptamine receptor 2B (Homo sapiens, UniProt P41595); assay: Antagonist activity at 5HT2B (unknown origin) expressed in FRT cells co-expressing ANO1 and YFP assessed as inhibition of 5HT-induced increase in iodide influx at 1 uM preincubated with compound for 10 mins followed by 5-HT addition and measured after 8 sec by YFP fluorescence quenching analysis relative to control; assay type: cell-based; conditions: time 608.0 sec
[2] = target: T1, 5-hydroxytryptamine receptor 2B; assay: Binding affinity to 5-HT2B (unknown origin) assessed as inhibition constant by receptor binding assay
[3] = target: T1, 5-hydroxytryptamine receptor 2B; assay: Binding affinity to 5-HT2B (unknown origin)
[4] = Clearance in male ICR mouse at 2 mg/kg, iv measured after 24 hrs by LC-MS/MS analysis; assay type: ADME, organism-based; conditions: in vivo
[5] = target: 5-hydroxytryptamine receptor 2A (Homo sapiens) (UniProt P28223); assay: Inhibition of 5-HT2A (unknown origin) at 1 uM relative to control
Mus musculus [6] = assay: Antifibrotic activity in CCl4-induced male C57BL/6J mouse model of liver fibrosis assessed as downregulation of Timp1 gene expression at 10 to 30 mg/kg, ip co-administered daily with CCl4 for 4 weeks by RT-PCR analysis; assay type: functional, organism-based; conditions: dose 10-30 mg/kg
Mus musculus [7] = assay: Antifibrotic activity in CCl4-induced male C57BL/6J mouse model of liver fibrosis assessed as reduction in fibrotic deposition in liver at 10 to 30 mg/kg, ip co-administered daily with CCl4 for 4 weeks by masson's trichrome staining based analysis; assay type: functional, organism-based; conditions: dose 10-30 mg/kg
Mus musculus [8] = assay: Antifibrotic activity in CCl4-induced male C57BL/6J mouse model of liver fibrosis assessed as reduction in plasma ALT level at 10 to 30 mg/kg, ip co-administered daily with CCl4 for 4 weeks by enzymatic colorimetric analysis; assay type: functional, organism-based; conditions: dose 10-30 mg/kg
Mus musculus [9] = assay: Antifibrotic activity in CCl4-induced male C57BL/6J mouse model of liver fibrosis assessed as reduction in fibrotic deposition in liver at 10 to 30 mg/kg, ip co-administered daily with CCl4 for 4 weeks by sirius red staining based analysis; assay type: functional, organism-based; conditions: dose 10-30 mg/kg
[10] = Cytotoxicity against HFL1 cells assessed as reduction in cell viability incubated for 24 hrs by EZ-CYTOX cell viability assay; assay type: toxicity, cell-based; conditions: human
CYP2C19 = CYP2C19 (Homo sapiens, UniProt P33261); assay: Inhibition of CYP2C19 (unknown origin) at 1 uM preincubated for 10 mins followed by NADPH addition and measured after 20 mins by luminescence based microplate reader analysis relative to control; assay type: ADME; conditions: time 30 min
Mus musculus [11] = assay: Antifibrotic activity in CCl4-induced male C57BL/6J mouse model of liver fibrosis assessed as reduction in plasma total bilirubin level at 10 to 30 mg/kg, ip co-administered daily with CCl4 for 4 weeks by enzymatic colorimetric analysis; assay type: functional, organism-based; conditions: dose 10-30 mg/kg
CYP2D6 = CYP2D6 (Homo sapiens, UniProt P10635); assay: Inhibition of CYP2D6 (unknown origin) at 1 uM preincubated for 10 mins followed by NADPH addition and measured after 20 mins by luminescence based microplate reader analysis relative to control; assay type: ADME; conditions: time 30 min
[12] = Volume of distribution at steady state in male ICR mouse at 2 mg/kg, iv measured after 24 hrs by LC-MS/MS analysis; assay type: ADME, organism-based; conditions: in vivo, read-out: Vdss
[13] = Drug concentration in male mouse brain at 5 mg/kg, ip measured after 0.5 hrs by LC-MS/MS analysis; assay type: ADME, organism-based; conditions: read-out: Ct
[14] = Cytotoxicity against CHO-K1 cells assessed as reduction in cell viability incubated for 24 hrs by EZ-CYTOX cell viability assay; assay type: toxicity, cell-based, Cricetulus griseus; conditions: Chinese hamster
Mus musculus [15] = assay: Antifibrotic activity in CCl4-induced male C57BL/6J mouse model of liver fibrosis assessed as downregulation of Col3a1 gene expression at 10 to 30 mg/kg, ip co-administered daily with CCl4 for 4 weeks by RT-PCR analysis; assay type: functional, organism-based; conditions: dose 10-30 mg/kg
Mus musculus [16] = assay: Antifibrotic activity in CCl4-induced male C57BL/6J mouse model of liver fibrosis assessed as reduction in sirius red positive area in liver at 10 to 30 mg/kg, ip co-administered daily with CCl4 for 4 weeks by sirius red staining based analysis; assay type: functional, organism-based; conditions: dose 10-30 mg/kg
[17] = Cytotoxicity against African green monkey Vero cells assessed as reduction in cell viability incubated for 24 hrs by EZ-CYTOX cell viability assay; assay type: toxicity, cell-based, Chlorocebus sabaeus
Mus musculus [18] = assay: Antifibrotic activity in CCl4-induced male C57BL/6J mouse model of liver fibrosis assessed as reduction in plasma AST level at 10 to 30 mg/kg, ip co-administered daily with CCl4 for 4 weeks by enzymatic colorimetric analysis; assay type: functional, organism-based; conditions: dose 10-30 mg/kg
[19] = AUC (0 to t) in male ICR mouse at 2 mg/kg, iv measured after 24 hrs by LC-MS/MS analysis; assay type: ADME, organism-based; conditions: in vivo
[20] = Metabolic stability in human liver microsomes assessed as parent compound remaining measured after 30 mins in presence of NADPH by LC-MS/MS analysis; assay type: ADME, Microsome; conditions: read-out: Stability
[21] = Drug concentration in male mouse plasma at 5 mg/kg, ip measured after 0.5 hrs by LC-MS/MS analysis; assay type: ADME, organism-based
Mus musculus [22] = assay: Antifibrotic activity in CCl4-induced male C57BL/6J mouse model of liver fibrosis assessed as reduction in fibrotic deposition in liver at 10 to 30 mg/kg, ip co-administered daily with CCl4 for 4 weeks by H and E staining based analysis; assay type: functional, organism-based; conditions: dose 10-30 mg/kg
[23] = Half-life in male ICR mouse at 2 mg/kg, iv measured after 24 hrs by LC-MS/MS analysis; assay type: ADME, organism-based; conditions: in vivo
Mus musculus [24] = assay: Antifibrotic activity in CCl4-induced male C57BL/6J mouse model of liver fibrosis assessed as downregulation of alpha-SMA gene expression at 10 to 30 mg/kg, ip co-administered daily with CCl4 for 4 weeks by RT-PCR analysis; assay type: functional, organism-based; conditions: dose 10-30 mg/kg
CYP1A2 = target: T2, CYP1A2 (Homo sapiens, UniProt P05177); assay: Inhibition of CYP1A2 (unknown origin) at 1 uM preincubated for 10 mins followed by NADPH addition and measured after 20 mins by luminescence based microplate reader analysis relative to control; assay type: ADME; conditions: time 30 min
T2 sequence (P05177 whole entry): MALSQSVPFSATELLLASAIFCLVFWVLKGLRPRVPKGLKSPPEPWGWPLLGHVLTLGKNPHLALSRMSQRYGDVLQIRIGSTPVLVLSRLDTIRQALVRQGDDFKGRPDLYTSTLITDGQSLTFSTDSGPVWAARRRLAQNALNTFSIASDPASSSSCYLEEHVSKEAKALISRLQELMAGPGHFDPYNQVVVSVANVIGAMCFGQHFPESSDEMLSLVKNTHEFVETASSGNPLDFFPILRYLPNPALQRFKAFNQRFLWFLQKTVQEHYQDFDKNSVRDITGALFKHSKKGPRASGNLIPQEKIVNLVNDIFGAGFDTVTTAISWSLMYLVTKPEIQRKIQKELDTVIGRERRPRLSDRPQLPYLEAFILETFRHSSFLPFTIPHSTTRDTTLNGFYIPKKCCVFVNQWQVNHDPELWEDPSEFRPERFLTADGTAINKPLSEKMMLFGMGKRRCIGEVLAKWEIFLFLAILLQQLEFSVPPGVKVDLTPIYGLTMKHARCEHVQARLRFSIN

Mus musculus [25] = assay: Antifibrotic activity in CCl4-induced male C57BL/6J mouse model of liver fibrosis assessed as downregulation of Col1a1 gene expression at 10 to 30 mg/kg, ip co-administered daily with CCl4 for 4 weeks by RT-PCR analysis; assay type: functional, organism-based; conditions: dose 10-30 mg/kg
[26] = Metabolic stability in rat liver microsomes assessed as parent compound remaining measured after 30 mins in presence of NADPH by LC-MS/MS analysis; assay type: ADME, Microsome; conditions: read-out: Stability
[27] = Metabolic stability in mouse liver microsomes assessed as parent compound remaining measured after 30 mins in presence of NADPH by LC-MS/MS analysis; assay type: ADME, Microsome; conditions: read-out: Stability
Mus musculus [28] = assay: Antifibrotic activity in CCl4-induced male C57BL/6J mouse model of liver fibrosis assessed as reduction in fibrosis be measuring fibrotic stage at 10 to 30 mg/kg, ip co-administered daily with CCl4 for 4 weeks; assay type: functional, organism-based; conditions: dose 10-30 mg/kg
[29] = Cytotoxicity against mouse L929 cells assessed as reduction in cell viability incubated for 24 hrs by EZ-CYTOX cell viability assay; assay type: toxicity, cell-based
[30] = target: T1, 5-hydroxytryptamine receptor 2B; assay: Antagonist activity at 5HT2B (unknown origin) expressed in FRT cells co-expressing ANO1 and YFP assessed as inhibition of 5HT-induced increase in iodide influx preincubated with compound for 10 mins followed by 5-HT addition and measured after 8 sec by YFP fluorescence quenching analysis; assay type: cell-based
CYP2C9 = CYP2C9 (Homo sapiens, UniProt P11712); assay: Inhibition of CYP2C9 (unknown origin) at 1 uM preincubated for 10 mins followed by NADPH addition and measured after 20 mins by luminescence based microplate reader analysis relative to control; assay type: ADME; conditions: time 30 min
Mus musculus [31] = assay: Antifibrotic activity in CCl4-induced male C57BL/6J mouse model of liver fibrosis assessed as reduction in hydroxyproline level in liver at 10 to 30 mg/kg, ip co-administered daily with CCl4 for 4 weeks; assay type: functional, organism-based; conditions: dose 10-30 mg/kg
CYP3A4 = CYP3A4 (Homo sapiens, UniProt P08684); assay: Inhibition of CYP3A4 (unknown origin) at 1 uM preincubated for 10 mins followed by NADPH addition and measured after 20 mins by luminescence based microplate reader analysis relative to control; assay type: ADME; conditions: time 30 min
[32] = Toxicity in CCl4-induced male C57BL/6J mouse model of liver fibrosis assessed as effect on liver gross morphology at 10 to 30 mg/kg, ip co-administered daily with CCl4 for 4 weeks; assay type: organism-based; conditions: in vivo, 672 h, dose 10-30 mg/kg
hERG (KCNH2) = hERG (KCNH2) (Homo sapiens, UniProt Q12809); assay: Inhibition of human ERG at 10 uM incubated for 2 hrs by fluorescence polarization assay relative to control; assay type: toxicity
[33] = Cytotoxicity against mouse NIH3T3 cells assessed as reduction in cell viability incubated for 24 hrs by EZ-CYTOX cell viability assay; assay type: toxicity, cell-based

T1 sequence (P41595 whole entry): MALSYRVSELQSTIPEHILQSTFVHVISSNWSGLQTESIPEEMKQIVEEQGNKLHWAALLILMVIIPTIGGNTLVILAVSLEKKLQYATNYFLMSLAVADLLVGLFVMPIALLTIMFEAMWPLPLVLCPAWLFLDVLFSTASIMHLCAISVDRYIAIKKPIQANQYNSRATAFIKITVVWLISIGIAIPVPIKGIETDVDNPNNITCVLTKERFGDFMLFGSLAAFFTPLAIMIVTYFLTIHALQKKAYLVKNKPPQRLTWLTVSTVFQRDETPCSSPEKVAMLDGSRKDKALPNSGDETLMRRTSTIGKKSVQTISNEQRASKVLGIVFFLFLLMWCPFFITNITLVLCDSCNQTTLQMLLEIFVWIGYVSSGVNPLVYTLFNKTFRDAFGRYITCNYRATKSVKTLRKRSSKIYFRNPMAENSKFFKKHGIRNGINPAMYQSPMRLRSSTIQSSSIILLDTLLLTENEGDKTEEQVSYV
Chain of CYP2C19 (P33261 whole entry): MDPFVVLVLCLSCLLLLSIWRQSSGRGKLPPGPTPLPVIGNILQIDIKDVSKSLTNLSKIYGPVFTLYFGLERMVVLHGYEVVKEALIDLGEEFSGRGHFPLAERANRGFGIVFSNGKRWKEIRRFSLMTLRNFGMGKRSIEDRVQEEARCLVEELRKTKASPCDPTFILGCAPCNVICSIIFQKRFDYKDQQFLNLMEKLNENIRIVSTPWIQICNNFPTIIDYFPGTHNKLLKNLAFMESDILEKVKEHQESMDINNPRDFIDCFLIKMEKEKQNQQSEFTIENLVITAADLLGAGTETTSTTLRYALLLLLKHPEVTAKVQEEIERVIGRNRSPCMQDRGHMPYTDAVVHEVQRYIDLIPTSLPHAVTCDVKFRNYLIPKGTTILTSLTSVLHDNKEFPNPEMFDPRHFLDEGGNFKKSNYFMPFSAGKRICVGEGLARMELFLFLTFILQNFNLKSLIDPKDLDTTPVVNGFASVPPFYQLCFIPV
Chain of CYP2C9 (P11712 whole entry): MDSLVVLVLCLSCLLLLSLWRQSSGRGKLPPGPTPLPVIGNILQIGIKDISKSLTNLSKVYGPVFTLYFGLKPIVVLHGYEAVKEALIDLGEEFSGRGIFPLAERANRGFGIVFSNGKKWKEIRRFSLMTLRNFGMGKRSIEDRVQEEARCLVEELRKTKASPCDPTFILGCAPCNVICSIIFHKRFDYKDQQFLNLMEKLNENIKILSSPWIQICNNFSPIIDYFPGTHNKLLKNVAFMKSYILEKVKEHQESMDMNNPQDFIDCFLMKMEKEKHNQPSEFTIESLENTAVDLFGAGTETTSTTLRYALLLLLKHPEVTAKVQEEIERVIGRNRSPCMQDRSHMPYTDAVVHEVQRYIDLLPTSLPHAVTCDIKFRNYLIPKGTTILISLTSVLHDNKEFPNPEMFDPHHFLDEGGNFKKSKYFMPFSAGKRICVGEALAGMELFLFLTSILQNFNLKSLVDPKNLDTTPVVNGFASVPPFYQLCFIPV
Chain of CYP3A4 (P08684 whole entry): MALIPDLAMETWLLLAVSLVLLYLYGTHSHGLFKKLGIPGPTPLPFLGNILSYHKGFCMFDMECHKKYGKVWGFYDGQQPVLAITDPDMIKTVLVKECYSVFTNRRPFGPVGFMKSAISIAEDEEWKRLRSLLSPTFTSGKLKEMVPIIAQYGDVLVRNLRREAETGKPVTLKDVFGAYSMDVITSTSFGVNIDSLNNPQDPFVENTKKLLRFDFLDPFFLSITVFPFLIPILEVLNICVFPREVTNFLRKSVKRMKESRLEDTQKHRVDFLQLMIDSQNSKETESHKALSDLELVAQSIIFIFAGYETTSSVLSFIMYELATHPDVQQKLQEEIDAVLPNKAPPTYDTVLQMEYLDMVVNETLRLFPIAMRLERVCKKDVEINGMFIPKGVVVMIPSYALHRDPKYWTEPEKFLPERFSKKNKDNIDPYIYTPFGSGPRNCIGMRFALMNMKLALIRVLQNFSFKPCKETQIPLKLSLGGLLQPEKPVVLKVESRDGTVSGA
Chain of 5-hydroxytryptamine receptor 2A (Homo sapiens) (P28223 whole entry): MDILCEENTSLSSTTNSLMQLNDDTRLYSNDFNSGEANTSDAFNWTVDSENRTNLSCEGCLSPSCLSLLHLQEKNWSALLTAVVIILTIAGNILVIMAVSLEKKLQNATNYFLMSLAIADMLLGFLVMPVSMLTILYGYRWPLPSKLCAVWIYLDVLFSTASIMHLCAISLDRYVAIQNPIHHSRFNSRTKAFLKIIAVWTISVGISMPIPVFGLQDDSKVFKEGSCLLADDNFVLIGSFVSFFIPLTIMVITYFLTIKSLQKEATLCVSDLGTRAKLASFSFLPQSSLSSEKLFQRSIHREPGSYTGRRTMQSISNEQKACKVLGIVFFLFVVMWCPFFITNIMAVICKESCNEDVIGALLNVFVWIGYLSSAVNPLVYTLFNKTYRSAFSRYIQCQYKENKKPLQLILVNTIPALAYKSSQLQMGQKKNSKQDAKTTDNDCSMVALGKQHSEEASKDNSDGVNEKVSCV
Chain of hERG (KCNH2) (Q12809 whole entry): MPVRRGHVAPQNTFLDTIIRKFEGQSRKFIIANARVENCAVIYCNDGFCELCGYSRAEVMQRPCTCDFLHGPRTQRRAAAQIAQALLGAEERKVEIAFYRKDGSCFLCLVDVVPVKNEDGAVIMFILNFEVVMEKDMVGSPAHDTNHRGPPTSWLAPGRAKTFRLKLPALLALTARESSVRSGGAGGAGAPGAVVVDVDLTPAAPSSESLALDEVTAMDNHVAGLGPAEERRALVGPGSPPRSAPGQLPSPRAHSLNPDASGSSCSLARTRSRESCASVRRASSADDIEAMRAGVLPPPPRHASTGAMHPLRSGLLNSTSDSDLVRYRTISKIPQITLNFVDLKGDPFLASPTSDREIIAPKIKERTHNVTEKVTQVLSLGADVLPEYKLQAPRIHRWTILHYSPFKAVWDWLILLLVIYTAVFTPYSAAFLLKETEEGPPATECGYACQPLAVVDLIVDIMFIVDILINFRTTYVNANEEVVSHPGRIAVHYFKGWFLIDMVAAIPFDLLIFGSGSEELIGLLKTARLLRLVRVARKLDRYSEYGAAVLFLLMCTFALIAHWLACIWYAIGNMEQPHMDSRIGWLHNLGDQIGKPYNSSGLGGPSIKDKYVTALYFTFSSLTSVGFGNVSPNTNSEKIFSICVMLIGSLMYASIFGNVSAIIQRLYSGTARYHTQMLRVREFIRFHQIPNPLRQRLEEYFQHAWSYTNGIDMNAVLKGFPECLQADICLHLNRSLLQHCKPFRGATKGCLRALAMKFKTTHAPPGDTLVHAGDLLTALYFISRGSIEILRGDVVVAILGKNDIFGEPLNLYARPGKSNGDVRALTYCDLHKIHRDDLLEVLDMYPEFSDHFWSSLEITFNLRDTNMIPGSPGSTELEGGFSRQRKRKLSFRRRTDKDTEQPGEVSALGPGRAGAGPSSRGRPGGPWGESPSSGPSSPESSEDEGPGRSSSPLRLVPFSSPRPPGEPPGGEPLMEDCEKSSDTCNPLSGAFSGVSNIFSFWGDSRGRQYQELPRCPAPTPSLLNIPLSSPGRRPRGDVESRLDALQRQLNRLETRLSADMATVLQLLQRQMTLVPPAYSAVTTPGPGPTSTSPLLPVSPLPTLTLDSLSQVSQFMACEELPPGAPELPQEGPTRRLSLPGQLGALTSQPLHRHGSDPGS
Chain of CYP2D6 (P10635 whole entry): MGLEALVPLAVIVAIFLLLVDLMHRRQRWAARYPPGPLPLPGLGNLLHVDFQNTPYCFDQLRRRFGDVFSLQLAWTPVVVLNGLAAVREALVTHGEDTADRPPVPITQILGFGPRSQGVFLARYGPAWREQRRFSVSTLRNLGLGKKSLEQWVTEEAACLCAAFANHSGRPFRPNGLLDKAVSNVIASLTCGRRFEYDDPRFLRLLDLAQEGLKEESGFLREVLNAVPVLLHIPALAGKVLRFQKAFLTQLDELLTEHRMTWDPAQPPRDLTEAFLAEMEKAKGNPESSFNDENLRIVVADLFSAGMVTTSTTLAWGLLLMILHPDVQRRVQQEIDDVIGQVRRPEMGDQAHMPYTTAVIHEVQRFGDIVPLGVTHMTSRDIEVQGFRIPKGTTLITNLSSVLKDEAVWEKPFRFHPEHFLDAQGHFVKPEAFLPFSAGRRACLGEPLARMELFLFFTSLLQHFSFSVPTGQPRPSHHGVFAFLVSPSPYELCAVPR

Compound: COc1ccc(S(=O)(=O)N[C@H]2CCOC2)cc1C(=O)Nc1ccccc1N1CCNCC1
- inhibition [1]: 15%

Compound: COc1ccc(S(=O)(=O)N[C@H]2CCOC2)cc1C(=O)Nc1ccccc1NC(=O)OC(C)(C)C
- inhibition [1]: 20.1%

Compound: NCC(=O)NCCN1CCN(CCCN2c3ccccc3Sc3ccc(C(F)(F)F)cc32)CC1
- pKi [2]: 8.28

Compound: COc1ccc(S(=O)(=O)N[C@H]2CCN(C(=O)OC(C)(C)C)C2)cc1C(=O)Nc1ccccc1Cl
- inhibition ([1]; filed as antagonist): 96.1%

Compound: O=C(c1ccc(-c2ccccc2)cc1)N1CCC(c2cc3ccccc3[nH]2)CC1
- pIC50 [3]: 8.62

Compound: COc1ccc(S(=O)(=O)N[C@@H]2CCN(C(=O)OC(C)(C)C)C2)cc1C(=O)Nc1ccccc1Cl
- inhibition ([1]; filed as antagonist): 99%

Compound: C[C@@H]1CN(C(=N)NCc2ccccc2)N=C1c1cccc(Cl)c1O
- pIC50 [3]: > 9.00

Compound: COc1ccc(S(=O)(=O)N[C@H]2CCNC2)cc1C(=O)Nc1ccccc1Cl
- inhibition ([1]; filed as antagonist): 93.7%

Compound: COc1ccc(S(=O)(=O)N[C@H]2CCN(C(=O)CC[C@H](N)C(=O)O)C2)cc1C(=O)Nc1ccccc1Cl.Cl
- clearance [4]: 34.5 mL/min/kg
- inhibition [5]: -9.88%
- Activity (Mus musculus [6]): Active
- Activity (Mus musculus [7]): Active
- Activity (Mus musculus [8]): Active
- Activity (Mus musculus [9]): Active
- IC50 at 24 h [10]: > 100000 nM
- inhibition at 20 min, 1 µM (CYP2C19): 17.6%
- Activity (Mus musculus [11]): Active
- inhibition at 20 min, 1 µM (CYP2D6): < 1%
- Vd [12]: 1.93 L/kg
- concentration at 0.5 h [13]: < 31.3 ng/g
- IC50 at 24 h [14]: > 100000 nM
- Activity (Mus musculus [15]): Active
- Activity (Mus musculus [16]): Active
- IC50 at 24 h [17]: > 100000 nM
- Activity (Mus musculus [18]): Active
- AUC(0-t) at 24 h [19]: 810 ng·h/mL
- remaining at 0.5 h [20]: 97.6%
- concentration at 0.5 h [21]: 440 ng/mL
- Activity (Mus musculus [22]): Active
- half-life [23]: 1.02 h
- Activity (Mus musculus [24]): Active
- inhibition at 20 min, 1 µM (CYP1A2): < 1%
- Activity (Mus musculus [25]): Active
- remaining at 0.5 h [26]: 94.7%
- remaining at 0.5 h [27]: 91.6%
- Activity (Mus musculus [28]): Active
- IC50 at 24 h [29]: > 100000 nM
- pIC50 [30]: 8.96
- inhibition at 20 min, 1 µM (CYP2C9): < 1%
- Activity (Mus musculus [31]): Active
- inhibition at 20 min, 1 µM (CYP3A4): 33.8%
- Activity [32]: Non-toxic
- inhibition at 2 h, 10 µM (hERG (KCNH2)): 18.6%
- IC50 at 24 h [33]: > 100000 nM
- inhibition ([1]; filed as antagonist): 102%

Compound: COc1ccc(S(=O)(=O)N[C@@H]2CCN(C(=O)C[C@H](N)C(=O)O)C2)cc1C(=O)Nc1ccccc1Cl
- inhibition ([1]; filed as antagonist): 100%
